From patent US20210332014A1, “CABOZANTINIB MALATE CRYSTAL FORM, PREPARATION METHOD AND USE THEREOF” (Crystal Pharmaceutical (Suzhou) Co., Ltd., priority 2018, published 2021)

What was measured:
Format in all cases: physicochemical
[1] = Kinetic solubility study (saturated solutions, HPLC); conditions: for Solubility in H2O / Solubility in FaSSIF / Solubility in FeSSIF: 20 mg in 1.5 mL
Description: The HPLC method parameters for solubility test in the present disclosure are as follows: • 1. Column: Waters XBridge C18 150×4.6mm, 5 μm • 2. Mobile Phase: A: 0.1% TFA in H2O • B: 0.1% TFA in Acetonitrile • Gradient:
• 3. Flow rate: 1 mL/min • 4. Injection Volume: 5 μL • 5. Detection wavelength: 250 nm • 6. Column Temperature: 40° C. • 7. Diluent: Acetonitrile/H2O (9:1, v/v)
• Simulated gastrointestinal fluids such as FaSSIF (Fasted state simulated intestinal fluids) and FeSSIF (Fed state simulated intestinal fluids) are biorelevant media. […] After equilibrated for 1 h and 4 h, concentrations (mg/mL) of the saturated solutions were measured by HPLC.
• 20 mg of Form CSIII and 20 mg of crystalline forms in the prior arts were suspended into 1.5 mL of SGF, 1.5 mL of FaSSIF, 1.5 mL of FeSSIF and 1.5 mL of water to get saturated solutions. After equilibrated for 1 h and 4 h, concentrations (mg/mL) of the saturated solutions were measured by HPLC.

[2] = Adhesiveness (material sticking to the punch); conditions: for Average amount sticking to the punch / Maximum amount sticking to the punch: 30 mg, φ8 mm round tooling, 10 KN held 30 s
Description: • 30 mg of Form CSIII and crystalline forms in the prior art were weighed separately and then added into the dies of φ8 mm round tooling, compressed at 10 KN and held for 30 s. The punch was weighed and amount of material sticking to the punch was calculated. The compression was repeated twice and the cumulative amount, maximum amount and average amount of material sticking to the punch during the compression were recorded.

[3] = Flowability (compressibility index / Carr index); conditions: for Compressibility index: c=(ρf−ρ0)/ρf
Description: Compressibility index test method is as follows: a certain amount of powder was added into a measuring cylinder and bulk volume was recorded. Then the powder was tapped to make it in the tightest state and the tapped volume was recorded. The bulk density (ρ0), tapped density (ρf) were calculated and compressibility index was calculated according to c=(ρf−ρ0)/ρf. • Criteria of flowability according to United States Pharmacopoeia USP1174, which is shown in Table 7.

[4] = Compressibility (tensile strength of manually compressed tablet); conditions: for Average tensile strength: 80 mg, φ6 mm round tooling, 10 KN, average of three tests
Description: • Manual tablet press was used for compression. 80 mg of Form CSIII and crystalline forms in the prior art were weighed and added into the dies of a φ6 mm round tooling, respectively, compressed at 10 KN manually, then stored at room temperature for 24 h until complete elastic recovery. Hardness (H) was tested with an intelligent tablet hardness tester. Diameter (D) and thickness (L) were tested with caliper. Tensile strength of the powder was calculated with the following formula: T=2H/πDL.

[5] = Dynamic Vapor Sorption (DVS); conditions: humidity lower than 30% RH, 25° C.
Description: Dynamic Vapor Sorption (DVS) is measured via an SMS (Surface Measurement Systems Ltd.) intrinsic DVS instrument. […] Typical Parameters for DVS test are as follows: • Temperature: 25° C. • Gas and flow rate: N2, 200 mL/min • dm/dt=0.002 • RH range: 0% RH to 95% RH

[6] = Particle size distribution (laser particle size analyzer); conditions: wet mode, Isopar G
Description: The particle size distribution data in the present disclosure were acquired by an [MUT] laser particle size analyzer of Microtrac. Microtrac [MUT] is equipped with an SDC (Sample Delivery Controller). The test is carried out in wet mode, and the dispersion medium is Isopar G. The parameters are as follows:

Row | Solubility compared with prior art [1] | Solubility in H2O ([1]; water, equilibrated 1 h) [µg/mL] | Solubility in H2O ([1]; water, equilibrated 4 h) [µg/mL] | Solubility in FaSSIF ([1]; equilibrated 1 h) [µg/mL] | Solubility in FaSSIF ([1]; equilibrated 4 h) [µg/mL] | Solubility in FeSSIF ([1]; equilibrated 1 h) [µg/mL] | Solubility in FeSSIF ([1]; equilibrated 4 h) [µg/mL] | Average amount sticking to the punch [2] [mg] | Maximum amount sticking to the punch [2] [mg] | Bulk density [3] [g/mL] | Tapped density [3] [g/mL] | Compressibility index [3] [%] | Average tensile strength [4] [MPa] | Structure (SMILES) | further results
1 | higher than that of prior art | 350 | 360 |  |  |  |  |  |  |  |  |  |  | COc1cc2nccc(Oc3ccc(NC(=O)C4(C(=O)Nc5ccc(F)cc5)CC4)cc3)c2cc1OC.O=C(O)C[C@H](O)C(=O)O [Form CSI, N-(4-(6,7-dimethoxyquinolin-4-yloxy)phenyl)-N′-(4-fluorophenyl) cyclopropane-1,1-dicarboxamide (S)-malate] | Solubility in water relative to Form M4 ([1]; water): over five times more; Solubility in water relative to Form N-2 ([1]; water): twice
2 | higher than that of prior art | 300 | 240 | 25 | 8.3 | 130 | 120 | 0.045 | 0.06 | 0.319 | 0.376 | 15 | 1.56 | COc1cc2nccc(Oc3ccc(NC(=O)C4(C(=O)Nc5ccc(F)cc5)CC4)cc3)c2cc1OC.O=C(O)C[C@H](O)C(=O)O [Form CSIII, N-(4-(6,7-dimethoxyquinolin-4-yloxy)phenyl)-N′-(4-fluorophenyl) cyclopropane-1,1-dicarboxamide (S)-malate] | Solubility relative to Form N-2 and Form M4 ([1]; FeSSIF and water): twice; Adhesiveness compared with prior art form [2]: superior to the prior art form; Maximum amount sticking to the punch of the prior art relative to Form CSIII [2]: over twice; Flowability compared with prior art [3]: remarkably superior to that of prior art; Compressibility compared with prior art [4]: better compressibility
3 |  |  |  |  |  |  |  |  |  |  |  |  |  | COc1cc2nccc(Oc3ccc(NC(=O)C4(C(=O)Nc5ccc(F)cc5)CC4)cc3)c2cc1OC.O=C(O)C[C@H](O)C(=O)O [Form M2, N-(4-(6,7-dimethoxyquinolin-4-yloxy)phenyl)-N′-(4-fluorophenyl) cyclopropane-1,1-dicarboxamide (S)-malate] | Behaviour under humidity (DVS) [5]: dehydrated rapidly; D90 particle size [6]: 244.3 μm
4 |  | 72 | 2.8 | 12 | 1.9 | 62 | 65 | 0.08 | 0.11 | 0.251 | 0.387 | 35 | 1.23 | COc1cc2nccc(Oc3ccc(NC(=O)C4(C(=O)Nc5ccc(F)cc5)CC4)cc3)c2cc1OC.O=C(O)C[C@H](O)C(=O)O [Form M4, N-(4-(6,7-dimethoxyquinolin-4-yloxy)phenyl)-N′-(4-fluorophenyl) cyclopropane-1,1-dicarboxamide (S)-malate] | 
5 |  | 150 | 150 | 11 | 7.9 | 47 | 43 | 0.20 | 0.26 | 0.194 | 0.256 | 24 | 1.02 | COc1cc2nccc(Oc3ccc(NC(=O)C4(C(=O)Nc5ccc(F)cc5)CC4)cc3)c2cc1OC.O=C(O)C[C@H](O)C(=O)O [Form N-2, N-(4-(6,7-dimethoxyquinolin-4-yloxy)phenyl)-N′-(4-fluorophenyl) cyclopropane-1,1-dicarboxamide (S)-malate] | 
